Measurements taken from patent US8455394B2 (priority 2009, dated 2013).

Legend:
[1] = system: Leptosphaeria nodorum (LEPTNO); experiment: In vitro fungitoxicity assay against Leptosphaeria nodorum in copper-minus and copper-plus liquid medium (growth inhibition, light scattering); assay type: cell-based; conditions: Parastagonospora nodorum; compound 0.05 μg/mL, copper-minus medium, 72 h at 25° C.; read-out: LEPTNO % Inhn. Minus Copper Observed
Procedure: In vitro fungitoxicity assays against Leptosphaeria nodorum (LEPTNO) were conducted using the liquid growth medium described by Coursen and Sisler (American Journal of Botany 1960, 47, 541-549) except that copper micronutrient, normally included as CuSO4, was omitted. The medium, termed “copper-minus”, was prepared by dissolving 10 g glucose, 1.5 g K2HPO4, 2 g KH2PO4 and 1 g (NH4)2SO4 in 1 liter of deionized water and treating the solution with 0.5 g Chelex 100 resin (Bio-Rad Analytical grade, 50-100 mesh, sodium form, cat#142-2822) by stirring at room temperature for 1 h. MgSO4.7H2O (0.5 g) was added, and stirring was continued for a further hour. Trace elements (minus CuSO4), and vitamins described by Coursen and Sisler were added from concentrated stock solutions and the entire medium was sterilized by filtration. Medium containing copper was prepared by adding CuCl2.2H2O to the copper-minus medium at 20 μM. […]
LEPTNO was grown on potato dextrose agar in 9 cm diameter petri dishes for 7 days. […] Microtiter plates were inoculated with 100 μL of this spore suspension and the plates incubated at 25° C. for 72 h before assessing fungal growth by measuring light scattering in a NepheloStar plate reader. Growth inhibition was determined by comparing growth in the presence of test compound with growth in control wells lacking test compound. […]

[2] = system: Phytophthora capsici; experiment: In vitro fungitoxicity assay against Phytophthora capsici in copper-minus AS and copper-plus AS medium; assay type: cell-based; conditions: CuCl2 50 uM without any test compound, across experiments
Procedure: In vitro fungitoxicity assays against Phytophthora capsici were conducted using the asparagine-sucrose (AS) medium described in Canadian Journal of Microbiology 1961, 7, 15-25, except that copper micronutrient, normally included as CuSO4, was omitted. The medium, termed “copper-minus AS”, was prepared by dissolving 2 g asparagine, 0.43 g KH2PO4, 0.3 g K2HPO4, 0.4 mL of a 0.5 mg/mL thiamine-HCl solution and 15 g sucrose in 1 liter of deionized water and treating the solution with 0.5 g Chelex 100 resin (Bio-Rad Analytical grade, 50-100 mesh, sodium form, cat#142-2822) by stirring at room temperature for 1 h. The pH was adjusted to 6.4, then MgSO4.7H2O (100 μg/mL), FeSO4.7H2O (1 μg/mL), CaCl2 (50 μg/mL), ZnSO4.7H2O (1 μg/mL), NaMoO4.2H2O (0.2 μg/mL) and MnCl2.4H2O (0.2 μg/mL) were added and the entire medium was sterilized by filtration. […]
Phytophthora capsici was grown on petri plates, 9 cm in diameter, containing 15 mL V-8 agar, pH 7.0, containing 200 mL V-8 juice, 4 g CaCO3, and 20 g agar per liter. […] Microtiter plates were inoculated with 100 μL of spore suspension and incubated at 25° C. for 48 h before assessing fungal growth by measuring light scattering in a NepheloStar plate reader. Growth inhibition was determined by comparing growth in the presence of test compound with growth in control wells lacking test compound. […]

| Compound | inhibition of growth at 0.05 µg/mL [1] [%] | % Inhn (copper chloride alone; printed in column Minus copper Observed) [2] [%] |
| --- | --- | --- |
| O=C(N/N=C/c1cccc(F)c1O)c1ccccc1 [Compound 1] | 4.4 |  |
| O.O.[Cl][Cu][Cl] [CuCl2, CuCl2.2H2O] |  | 4.5 ± 7.9 |
